Test results reported in patent publication US11628160B2, “Compositions and methods for treating brain injury” (Azevan Pharmaceuticals, Inc., priority 2017, dated 2023).

Target: T1, human V1a receptor (Homo sapiens, UniProt P37288)
T1 construct: host or cells: CHO cells
Experiment: Human vasopressin V1a receptor binding assay
Details: hV1a CHO cell line, competition with 1 nM 3H-AVP; for IC50: read-out: V1a Binding Affinity IC50; for Ki: read-out: V1a Ki
Method: EXAMPLE. Human vasopressin V1a receptor binding assay. A cell line expressing the human V1a receptor in CHO cells (henceforth referred to as the hV1a cell line) was obtained from Dr. Michael Brownstein, NIMH, Bethesda, Md., USA. The hV1a cDNA sequence is described by Thibonnier et al., Journal of Biological Chemistry, 269, 3304-3310 (1994), and the expression method was the same as described by Morel et al. (1992). The hV1a cell line was grown in alpha-MEM with 10% fetal bovine serum and 250 ug/ml G418 (Gibco, Grand Island, N.Y., USA). For competitive binding assay, hV1a cells were plated into 6-well culture plate at 1:10 dilution from a confluency flask, and maintained in culture for at least two days. Culture medium was then removed, cells were washed with 2 ml binding buffer (25 mM Hepes, 0.25% BSA, 1×DMEM, PH=7.0). To each well, 990 μl binding buffer containing 1 nM 3H-AVP was added, and followed by 10 μl series diluted Example compounds dissolved in DMSO. […] 100 nM cold AVP (Sigma) was used to assess non-specific binding. Cells were incubated for 45 minutes at 37° C., assay mixture was removed and each well was washed three times with PBS (pH=7.4). 1 ml 2% SDS was added per well and plates were let sit for 30 minutes. The whole content in a well was transferred to a scintillation vial. Each well was rinsed with 0.5 ml PBS which was then added to the corresponding vial. Scintillation fluid (Ecoscint, National Diagnostics, Atlanta, Ga.) was then added at 3 ml per vial. Samples were counted in a liquid scintillation counter (Beckman LS3801). IC50 values were calculated by Prism Curve fitting software.
All of the alkanedioic esters and amides exemplified in the foregoing examples dissolved in DMSO were tested in this assay. Binding curves were generated according to methods described by Thibonnier et al. (1994). [^3H]-AVP was added to the hV1a cell cultures followed by 10-fold dilutions of each test compound.

T1 sequence (P37288 whole entry): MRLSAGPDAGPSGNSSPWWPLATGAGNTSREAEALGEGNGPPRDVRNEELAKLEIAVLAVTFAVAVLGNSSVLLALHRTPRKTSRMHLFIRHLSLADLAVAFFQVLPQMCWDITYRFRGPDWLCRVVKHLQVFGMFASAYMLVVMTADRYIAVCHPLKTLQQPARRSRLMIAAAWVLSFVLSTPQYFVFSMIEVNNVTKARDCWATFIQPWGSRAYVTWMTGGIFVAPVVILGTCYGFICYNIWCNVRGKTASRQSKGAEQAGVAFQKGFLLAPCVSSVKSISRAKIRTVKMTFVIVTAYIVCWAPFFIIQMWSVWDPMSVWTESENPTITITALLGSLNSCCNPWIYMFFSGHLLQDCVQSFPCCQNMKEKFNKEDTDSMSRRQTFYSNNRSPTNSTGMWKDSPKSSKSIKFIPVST

| Compound | IC50 | Ki |
| --- | --- | --- |
| O=C(NC1CCCc2ccccc21)C(CCC(=O)N1CCN(C2CCCC2)CC1)N1C(=O)C(N2C(=O)OCC2c2ccccc2)C1C=Cc1ccccc1 (stereo not shown) [Example 241] | 2 nM | 1.24 nM |
| O=C(NCc1cc(C(F)(F)F)cc(C(F)(F)F)c1)C(CCC(=O)N1CCN(C2CCCCC2)CC1)N1C(=O)C(N2C(=O)OCC2c2ccccc2)C1C=Cc1ccccc1 (stereo not shown) [Example 188] | 7.26 nM | 4.45 nM |
| Cc1cccc(CCC2C(N3C(=O)OCC3c3ccccc3)C(=O)N2C(CC(=O)N2CCC(N3CCCCC3)CC2)C(=O)NC(C)c2ccccc2)c1 (stereo not shown) [Example 778] |  | 0.63 nM |
| O=C(NCCc1ccccc1)C(CCC(=O)N1CCN(C2CCCCC2)CC1)N1C(=O)C(N2C(=O)OCC2c2ccccc2)C1C=Cc1ccccc1 (stereo not shown) [Example 200] | 5.08 nM | 3.11 nM |
| O=C(NCc1cc(F)cc(C(F)(F)F)c1)C(CCC(=O)N1CCN(C2CCCCC2)CC1)N1C(=O)C(N2C(=O)OCC2c2ccccc2)C1C=Cc1ccccc1 (stereo not shown) [Example 179] | 0.81 nM | 0.51 nM |
| Cc1cccc(CNC(=O)C(CCC(=O)N2CCN(C3CCCCC3)CC2)N2C(=O)C(N3C(=O)OCC3c3ccccc3)C2C=Cc2ccccc2)c1 (stereo not shown) [Example 193] | 1.17 nM | 0.72 nM |
| COc1cc(CNC(=O)C(CCC(=O)N2CCN(C3CCCCC3)CC2)N2C(=O)C(N3C(=O)OCC3c3ccccc3)C2C=Cc2ccccc2)cc(OC)c1 (stereo not shown) [Example 201] | 10.5 nM | 6.43 nM |
| O=C(NC1CCCc2ccccc21)C(CCC(=O)N1CCN(C2CCCCC2)CC1)N1C(=O)C(N2C(=O)OCC2c2ccccc2)C1C=Cc1cccc(C(F)(F)F)c1 (stereo not shown) [Example 246] | 2.1 nM | 1.3 nM |
| O=C(NC(c1ccccc1)C(F)(F)F)C(CC(=O)N1CCC(N2CCCCC2)CC1)N1C(=O)C(N2C(=O)OCC2c2ccccc2)C1CCc1ccccc1 (stereo not shown) [Example 626] |  | 0.27 nM |
| Cc1ccc(C2(NC(=O)C(CCC(=O)N3CCN(C4CCCCC4)CC3)N3C(=O)C(N4C(=O)OCC4c4ccccc4)C3C=Cc3ccccc3)CC2)cc1 (stereo not shown) [Example 221AP] |  | 3.8 nM |
| O=C(CCC(C(=O)NCc1cccc(C(F)(F)F)c1)N1C(=O)C(N2C(=O)OCC2c2ccccc2)C1C=Cc1ccccc1)NCCN1CCCCC1 (stereo not shown) [Example 87] | 15 nM |  |
| CN(Cc1cccc(C(F)(F)F)c1)C(=O)C(CCC(=O)N1CCN(C2CCCCC2)CC1)N1C(=O)C(N2C(=O)OCC2c2ccccc2)C1C=Cc1ccccc1 (stereo not shown) [Example 205] | 0.34 nM | 0.21 nM |
| CN(Cc1cccc(C(F)(F)F)c1)C(=O)C(CC(=O)N1CCC(N2CCCCC2)CC1)N1C(=O)C(N2C(=O)OCC2c2ccccc2)C1CCc1cccc(Br)c1 (stereo not shown) [Example 617] |  | 0.69 nM |
| O=C(NCc1cc(C(F)(F)F)ccc1F)C(CCC(=O)N1CCN(C2CCCCC2)CC1)N1C(=O)C(N2C(=O)OCC2c2ccccc2)C1C=Cc1ccccc1 (stereo not shown) [Example 177] | 0.67 nM | 0.41 nM |
| O=C(NCc1cccc(C(F)(F)F)c1)[C@H](CCC(=O)N1CCN(N2CCCC2)CC1)N1C(=O)[C@@H](N2C(=O)OC[C@@H]2c2ccccc2)[C@H]1/C=C/c1ccccc1 [Example 91] | 3.24 nM | 1.99 nM |
| O=C(C(COCc1ccccc1)N1C(=O)C(N2C(=O)OCC2c2ccccc2)C1C=Cc1ccccc1)N1CCC(CN2CCCCC2)CC1 (stereo not shown) [Example 232E] | 0.28 nM | 0.17 nM |
| COc1ccccc1CNC(=O)C(CCC(=O)N1CCN(C2CCCCC2)CC1)N1C(=O)C(N2C(=O)OCC2c2ccccc2)C1C=Cc1ccccc1 (stereo not shown) [Example 220] | 5.3 nM | 3.26 nM |
| O=C(NCc1ccco1)C(CCC(=O)N1CCN(C2CCCCC2)CC1)N1C(=O)C(N2C(=O)OCC2c2ccccc2)C1C=Cc1ccccc1 (stereo not shown) [Example 211] | 5.37 nM | 3.29 nM |

| Compound | IC50 | Ki |
| --- | --- | --- |
| O=C(NCc1cccc(Br)c1)C(CCC(=O)N1CCN(C2CCCCC2)CC1)N1C(=O)C(N2C(=O)OCC2c2ccccc2)C1C=Cc1ccccc1 (stereo not shown) [Example 190] | 0.88 nM | 0.54 nM |
| O=C(NCc1cccc(C(F)(F)F)c1)C(CC(=O)N1CCN(N2CCCC2)CC1)N1C(=O)C(N2C(=O)OCC2c2ccccc2)C1C=Cc1ccccc1 (stereo not shown) [Example 47] | ~50 nM |  |
| O=C(NCc1ccccc1C(F)(F)F)C(CCC(=O)N1CCN(C2CCCCC2)CC1)N1C(=O)C(N2C(=O)OCC2c2ccccc2)C1C=Cc1ccccc1 (stereo not shown) [Example 182] | 1.52 nM | 0.93 nM |
| O=C(NC1(c2ccccc2)CC1)C(CCC(=O)N1CCN(C2CCCCC2)CC1)N1C(=O)C(N2C(=O)OCC2c2ccccc2)C1C=Cc1ccccc1 (stereo not shown) [Example 207] | 4.48 nM | 2.74 nM |
| O=C(NC1CCCc2ccccc21)C(CCC(=O)N1CCN(C2CCCCC2)CC1)N1C(=O)C(N2C(=O)OCC2c2ccccc2)C1C=Cc1cc(Cl)cc(Cl)c1 (stereo not shown) [Example 252] | 1.8 nM | 1.1 nM |
| COc1ccc(OC)c(CNC(=O)C(CCC(=O)N2CCN(C3CCCCC3)CC2)N2C(=O)C(N3C(=O)OCC3c3ccccc3)C2C=Cc2ccccc2)c1 (stereo not shown) [Example 219] | 0.63 nM | 0.39 nM |
| O=C(NCc1cccc(OC(F)(F)F)c1)C(CCC(=O)N1CCN(C2CCCCC2)CC1)N1C(=O)C(N2C(=O)OCC2c2ccccc2)C1C=Cc1ccccc1 (stereo not shown) [Example 172] | 4.5 nM | 2.78 nM |
| (2S)-[(4-cyclohexylpiperazinyl)carbonylethyl]-2-[3(S)-(4(S)-phenyloxazolidin-2-on-3-yl)-4(R)-(2-phenyleth-1-yl)azetidin-2-on-1-yl]acetic acid N—[(R)-1,2,3,4-tetrahydronaphth-1-yl]amide [Example 236A] | 9 nM | 5.5 nM |
| CC(NC(=O)C(CC(=O)N1CCC(N2CCCCC2)CC1)N1C(=O)C(N2C(=O)OCC2c2ccccc2)C1CCc1ccc(O)cc1)c1ccccc1 (stereo not shown) [Example 594] |  | 19 nM |
| CC(NC(=O)C(CC(=O)N1CCC(N2CCCCC2)CC1)N1C(=O)C(N2C(=O)OCC2c2ccccc2)C1CCc1cccc(Br)c1)c1ccccc1 (stereo not shown) [Example 606] | 0.53 nM | 0.32 nM |
| O=C(NC1(c2ccccc2)CCCC1)C(CCC(=O)N1CCN(Cc2ccccc2)CC1)N1C(=O)C(N2C(=O)OCC2c2ccccc2)C1C=Cc1ccccc1 (stereo not shown) [Example 240] | 25 nM | 15.5 nM |
| O=C(NC(c1ccccc1)C(F)(F)F)C(CC(=O)N1CCC(N2CCCCC2)CC1)N1C(=O)C(N2C(=O)OCC2c2ccccc2)C1CCc1ccccc1 (stereo not shown) [Example 623] |  | 0.85 nM |
| O=C(NCc1cccc(Cl)c1)C(CCC(=O)N1CCN(C2CCCCC2)CC1)N1C(=O)C(N2C(=O)OCC2c2ccccc2)C1C=Cc1ccccc1 (stereo not shown) [Example 187] | 1 nM | 0.66 nM |
| Cc1ccccc1C(C)(C)NC(=O)C(CCC(=O)N1CCN(C2CCCCC2)CC1)N1C(=O)C(N2C(=O)OCC2c2ccccc2)C1C=Cc1ccccc1 (stereo not shown) [Example 221] | 5.1 nM |  |
| O=C(NC1CCc2ccccc21)C(CCC(=O)N1CCN(C2CCCCC2)CC1)N1C(=O)C(N2C(=O)OCC2c2ccccc2)C1C=Cc1ccccc1 (stereo not shown) [Example 221R] | 5.13 nM | 3.14 nM |
| C[C@@H](NC(=O)[C@H](CCC(=O)N1CCN(C2CCCCC2)CC1)N1C(=O)[C@@H](N2C(=O)OC[C@@H]2c2ccccc2)[C@H]1/C=C/c1ccccc1)c1cccc(C(F)(F)F)c1 [Example 221F] | 1.7 nM | 1.04 nM |
| O=C(NCc1cccc(C(F)(F)F)c1F)C(CCC(=O)N1CCN(C2CCCCC2)CC1)N1C(=O)C(N2C(=O)OCC2c2ccccc2)C1C=Cc1ccccc1 (stereo not shown) [Example 180] | 0.33 nM | 0.2 nM |
